Source: paper PMC12310023 (PLOS Neglected Tropical Diseases, 2025)

System: NLuc-expressing C. parvum
Experiment: NLuc C. parvum IFNγ-KO mouse infection model, oocyst shedding
Format: in vivo

With `CC(C)(CO)Cn1nc(-c2ccc3cc(OC4CC4)ccc3c2)c(C(N)=O)c1N` [compound 1708] the “RLU Raw” value (8 mg/kg QD x3, group I, Day 6, Cp Mouse Efficacy 1) was 754480 RLU, the “RLU Raw” value (8 mg/kg QD x3, group I, Day 7, Cp Mouse Efficacy 1) was 2842576 RLU and the “RLU Raw” value (8 mg/kg QD x3, group I, Day 8, Cp Mouse Efficacy 1) was 17367584 RLU. For the same compound, the “RLU Raw” value (8 mg/kg QD x3, group I, Day 9, Cp Mouse Efficacy 1) was 4938000 RLU, the “RLU Raw” value (8 mg/kg QD x3, group I, Day 10, Cp Mouse Efficacy 1) was 9525504 RLU and the “RLU Raw” value (8 mg/kg QD x3, group I, Day 13, Cp Mouse Efficacy 1) was 2717520 RLU. For the same compound, the “RLU Raw” value (8 mg/kg QD x3, group I, Day 15, Cp Mouse Efficacy 1) was 2626944 RLU, the “RLU Raw” value (8 mg/kg QD x3, group I, Day 17, Cp Mouse Efficacy 1) was 5999920 RLU and the “RLU Raw” value (8 mg/kg QD x3, group I, Day 20, Cp Mouse Efficacy 1) was 14563168 RLU. For the same compound, the “RLU standardized by fecal weight” value (8 mg/kg QD x3, group I, day 6 p.i., Cp Mouse Efficacy 1) was 118816 RLU, the “RLU standardized by fecal weight” value (8 mg/kg QD x3, group I, day 7 p.i., Cp Mouse Efficacy 1) was 653466 RLU and the “RLU standardized by fecal weight” value (8 mg/kg QD x3, group I, day 8 p.i., Cp Mouse Efficacy 1) was 4135139 RLU. For the same compound, the “RLU standardized by fecal weight” value (8 mg/kg QD x3, group I, day 9 p.i., Cp Mouse Efficacy 1) was 1371667 RLU, the “RLU standardized by fecal weight” value (8 mg/kg QD x3, group I, day 10 p.i., Cp Mouse Efficacy 1) was 1763982 RLU and the “RLU standardized by fecal weight” value (8 mg/kg QD x3, group I, day 13 p.i., Cp Mouse Efficacy 1) was 414889 RLU. For the same compound, the “RLU standardized by fecal weight” value (8 mg/kg QD x3, group I, day 15 p.i., Cp Mouse Efficacy 1) was 314604 RLU, the “RLU standardized by fecal weight” value (8 mg/kg QD x3, group I, day 17 p.i., Cp Mouse Efficacy 1) was 909079 RLU and the “RLU standardized by fecal weight” value (8 mg/kg QD x3, group I, day 20 p.i., Cp Mouse Efficacy 1) was 1879118 RLU. For the same compound, the “RLU Raw” value (15 mg/kg QD x3, group H, Day 6, Cp Mouse Efficacy 1) was 464960 RLU, the “RLU Raw” value (15 mg/kg QD x3, group H, Day 7, Cp Mouse Efficacy 1) was 131248 RLU and the “RLU Raw” value (15 mg/kg QD x3, group H, Day 8, Cp Mouse Efficacy 1) was 447488 RLU. The “RLU Raw” value (15 mg/kg QD x3, group H, Day 9, Cp Mouse Efficacy 1) was 45888 RLU, the “RLU Raw” value (15 mg/kg QD x3, group H, Day 10, Cp Mouse Efficacy 1) was 5216 RLU and the “RLU Raw” value (15 mg/kg QD x3, group H, Day 13, Cp Mouse Efficacy 1) was 1120 RLU. The “RLU Raw” value (15 mg/kg QD x3, group H, Day 15, Cp Mouse Efficacy 1) was 6784 RLU, the “RLU Raw” value (15 mg/kg QD x3, group H, Day 17, Cp Mouse Efficacy 1) was 944 RLU and the “RLU Raw” value (15 mg/kg QD x3, group H, Day 20, Cp Mouse Efficacy 1) was 848 RLU. The “RLU standardized by fecal weight” value (15 mg/kg QD x3, group H, day 6 p.i., Cp Mouse Efficacy 1) was 86104 RLU, the “RLU standardized by fecal weight” value (15 mg/kg QD x3, group H, day 7 p.i., Cp Mouse Efficacy 1) was 18617 RLU and the “RLU standardized by fecal weight” value (15 mg/kg QD x3, group H, day 8 p.i., Cp Mouse Efficacy 1) was 49446 RLU. The “RLU standardized by fecal weight” value (15 mg/kg QD x3, group H, day 9 p.i., Cp Mouse Efficacy 1) was 4543 RLU, the “RLU standardized by fecal weight” value (15 mg/kg QD x3, group H, day 10 p.i., Cp Mouse Efficacy 1) was 1391 RLU and the “RLU standardized by fecal weight” value (15 mg/kg QD x3, group H, day 13 p.i., Cp Mouse Efficacy 1) was 89 RLU. For the same compound, the “RLU standardized by fecal weight” value (15 mg/kg QD x3, group H, day 15 p.i., Cp Mouse Efficacy 1) was 665 RLU, the “RLU standardized by fecal weight” value (15 mg/kg QD x3, group H, day 17 p.i., Cp Mouse Efficacy 1) was 115 RLU and the “RLU standardized by fecal weight” value (15 mg/kg QD x3, group H, day 20 p.i., Cp Mouse Efficacy 1) was 86 RLU. The “RLU Raw” value (15 mg/kg x 1 days, group G, Day 6, Cp Mouse Efficacy 2) was 267600 RLU, the “RLU Raw” value (15 mg/kg x 1 days, group G, Day 7, Cp Mouse Efficacy 2) was 185696 RLU and the “RLU Raw” value (15 mg/kg x 1 days, group G, Day 8, Cp Mouse Efficacy 2) was 380816 RLU. The “RLU Raw” value (15 mg/kg x 1 days, group G, Day 9, Cp Mouse Efficacy 2) was 630928 RLU, the “RLU Raw” value (15 mg/kg x 1 days, group G, Day 10, Cp Mouse Efficacy 2) was 2410000 RLU and the “RLU Raw” value (15 mg/kg x 1 days, group G, Day 13, Cp Mouse Efficacy 2) was 338704 RLU. The “RLU Raw” value (15 mg/kg x 1 days, group G, Day 15, Cp Mouse Efficacy 2) was 51520 RLU, the “RLU Raw” value (15 mg/kg x 1 days, group G, Day 17, Cp Mouse Efficacy 2) was 66336 RLU and the “RLU Raw” value (15 mg/kg x 1 days, group G, Day 20, Cp Mouse Efficacy 2) was 43392 RLU. For the same compound, the “RLU standardized by fecal weight” value (15 mg/kg x 1 days, group G, day 6 p.i., Cp Mouse Efficacy 2) was 18713 RLU, the “RLU standardized by fecal weight” value (15 mg/kg x 1 days, group G, day 7 p.i., Cp Mouse Efficacy 2) was 21344 RLU and the “RLU standardized by fecal weight” value (15 mg/kg x 1 days, group G, day 8 p.i., Cp Mouse Efficacy 2) was 110381 RLU. For the same compound, the “RLU standardized by fecal weight” value (15 mg/kg x 1 days, group G, day 9 p.i., Cp Mouse Efficacy 2) was 122510 RLU, the “RLU standardized by fecal weight” value (15 mg/kg x 1 days, group G, day 10 p.i., Cp Mouse Efficacy 2) was 529670 RLU and the “RLU standardized by fecal weight” value (15 mg/kg x 1 days, group G, day 13 p.i., Cp Mouse Efficacy 2) was 94084 RLU. The “RLU standardized by fecal weight” value (15 mg/kg x 1 days, group G, day 15 p.i., Cp Mouse Efficacy 2) was 6869 RLU, the “RLU standardized by fecal weight” value (15 mg/kg x 1 days, group G, day 17 p.i., Cp Mouse Efficacy 2) was 20102 RLU and the “RLU standardized by fecal weight” value (15 mg/kg x 1 days, group G, day 20 p.i., Cp Mouse Efficacy 2) was 10091 RLU. The “RLU Raw” value (15 mg/kg x 2 days, group H, Day 6, Cp Mouse Efficacy 2) was 505536 RLU, the “RLU Raw” value (15 mg/kg x 2 days, group H, Day 7, Cp Mouse Efficacy 2) was 606112 RLU and the “RLU Raw” value (15 mg/kg x 2 days, group H, Day 8, Cp Mouse Efficacy 2) was 78272 RLU. For the same compound, the “RLU Raw” value (15 mg/kg x 2 days, group H, Day 9, Cp Mouse Efficacy 2) was 75472 RLU, the “RLU Raw” value (15 mg/kg x 2 days, group H, Day 10, Cp Mouse Efficacy 2) was 77152 RLU and the “RLU Raw” value (15 mg/kg x 2 days, group H, Day 13, Cp Mouse Efficacy 2) was 20208 RLU. The “RLU Raw” value (15 mg/kg x 2 days, group H, Day 15, Cp Mouse Efficacy 2) was 12176 RLU, the “RLU Raw” value (15 mg/kg x 2 days, group H, Day 17, Cp Mouse Efficacy 2) was 9280 RLU and the “RLU Raw” value (15 mg/kg x 2 days, group H, Day 20, Cp Mouse Efficacy 2) was 10848 RLU. For the same compound, the “RLU standardized by fecal weight” value (15 mg/kg x 2 days, group H, day 6 p.i., Cp Mouse Efficacy 2) was 118950 RLU, the “RLU standardized by fecal weight” value (15 mg/kg x 2 days, group H, day 7 p.i., Cp Mouse Efficacy 2) was 269383 RLU and the “RLU standardized by fecal weight” value (15 mg/kg x 2 days, group H, day 8 p.i., Cp Mouse Efficacy 2) was 14630 RLU. The “RLU standardized by fecal weight” value (15 mg/kg x 2 days, group H, day 9 p.i., Cp Mouse Efficacy 2) was 18635 RLU, the “RLU standardized by fecal weight” value (15 mg/kg x 2 days, group H, day 10 p.i., Cp Mouse Efficacy 2) was 18370 RLU and the “RLU standardized by fecal weight” value (15 mg/kg x 2 days, group H, day 13 p.i., Cp Mouse Efficacy 2) was 1962 RLU. For the same compound, the “RLU standardized by fecal weight” value (15 mg/kg x 2 days, group H, day 15 p.i., Cp Mouse Efficacy 2) was 2387 RLU, the “RLU standardized by fecal weight” value (15 mg/kg x 2 days, group H, day 17 p.i., Cp Mouse Efficacy 2) was 1160 RLU and the “RLU standardized by fecal weight” value (15 mg/kg x 2 days, group H, day 20 p.i., Cp Mouse Efficacy 2) was 4094 RLU. For the same compound, the “RLU Raw” value (15 mg/kg x 3 days, group I, Day 6, Cp Mouse Efficacy 2) was 932240 RLU, the “RLU Raw” value (15 mg/kg x 3 days, group I, Day 7, Cp Mouse Efficacy 2) was 627218 RLU and the “RLU Raw” value (15 mg/kg x 3 days, group I, Day 8, Cp Mouse Efficacy 2) was 396768 RLU. The “RLU Raw” value (15 mg/kg x 3 days, group I, Day 9, Cp Mouse Efficacy 2) was 37984 RLU, the “RLU Raw” value (15 mg/kg x 3 days, group I, Day 10, Cp Mouse Efficacy 2) was 6160 RLU and the “RLU Raw” value (15 mg/kg x 3 days, group I, Day 13, Cp Mouse Efficacy 2) was 1280 RLU. The “RLU Raw” value (15 mg/kg x 3 days, group I, Day 15, Cp Mouse Efficacy 2) was 656 RLU, the “RLU Raw” value (15 mg/kg x 3 days, group I, Day 17, Cp Mouse Efficacy 2) was 496 RLU and the “RLU Raw” value (15 mg/kg x 3 days, group I, Day 20, Cp Mouse Efficacy 2) was 864 RLU.
